For test [1], the target named is T1, CDK4-cyclinD1 (Homo sapiens, UniProt P11802). In words: CDK4 enzyme inhibitory ability (Reaction Biology). It counts as biochemical. Set-up: purchased Reaction Biology (USA), contract assay. Particulars: measured in Reaction Biology (USA). The protocol:
(§1) In order to evaluate the CDK4 and CDK6 enzyme inhibitory activities of the example compounds according to the present invention, IC5O (nM) was measured for the CDK4 cyclin D1 and CDK6 cyclin D1 enzymes in Reaction Biology (USA), and the results were shown in Table 3 below.

For the next test, the system named is MV4-11 cells. Put plainly: AML cell proliferation inhibitory activity (CellTiter-Glo). It counts as cell-based. Particulars: Homo sapiens, 72 hours. Summed up: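 RS4;11 and MV4-11 cells in RPMI-1640 with 10% FBS, seeded 24 h before treatment, then exposed 72 h to 12 three-fold dilutions (0.3 nM–50 μM final). Viability by CellTiter-Glo luminescence relative to solvent control; GI50 from triplicate experiments.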

A further test deals with MCF-7 cells. In words: Breast cancer cell line proliferation inhibitory activity (CellTiter-Glo 2.0). Type of test: cell-based. Particulars: Homo sapiens, MCF7, 120 hours. Summed up:
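MCF-7 cells exposed to a 12-point, 3-fold dilution series (final 0.00005–10 μM) for 120 h at 37 °C. Viability read by CellTiter-Glo 2.0 luminescence, expressed as percent of vehicle-treated cells. GI50 (nM) derived from the curves.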

A further test addresses T2, CDK6 cyclin D1 (Homo sapiens, UniProt Q00534).
T2 construct: purchased Reaction Biology (USA), contract assay
In words: CDK6 enzyme inhibitory ability (Reaction Biology). It counts as biochemical. Particulars: measured in Reaction Biology (USA). The method, then:
as §1

The next test addresses T3, human GST-HPK1 (1-346) (Homo sapiens, UniProt Q92918).
T3 construct: purified human GST-HPK1 (1-346, Signalchem) enzyme; purchased Signalchem
T3 sequence (Q92918 1-346): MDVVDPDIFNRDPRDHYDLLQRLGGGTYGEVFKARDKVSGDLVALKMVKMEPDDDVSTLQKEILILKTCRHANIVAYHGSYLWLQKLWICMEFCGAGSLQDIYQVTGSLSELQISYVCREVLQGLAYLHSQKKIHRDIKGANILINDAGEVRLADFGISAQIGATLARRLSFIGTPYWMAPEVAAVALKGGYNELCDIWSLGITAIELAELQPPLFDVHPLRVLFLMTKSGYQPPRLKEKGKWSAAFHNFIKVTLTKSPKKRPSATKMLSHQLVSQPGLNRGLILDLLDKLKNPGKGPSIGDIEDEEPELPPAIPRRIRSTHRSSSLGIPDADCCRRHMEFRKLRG
Put plainly: HPK1 enzyme inhibitory ability (ADP-Glo kinase assay). It counts as biochemical. Particulars: human GST-HPK1 3 ng, ATP 3 uM, 25° C. 2 hours. Put shortly: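 Human GST-HPK1(1-346), 3 ng, reacted with 3 uM ATP and specific substrate in 40 mM Tris-HCl pH 7.4, 20 mM MgCl2, 0.5 mg/mL BSA, 50 uM DTT for 2 h at 25° C. ADP-Glo luminescence read; IC50 (nM) relative to untreated solvent control.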

Test [2] has as its target T1, CDK4-cyclinD1. In words: scanMAX kinase assay panel. It counts as binding. Set-up: purchased DiscoverX (scanMAX panel, contract assay). Particulars: read-out: control percentage (% control). The protocol: The activities of the compounds according to the present invention to more diverse enzymes were evaluated. Specifically, it was decided that the enzyme selectivity of Example 74 selected from the compounds of Examples 1 to 129 was measured at the request of DiscoverX, and the experiment was conducted using a scanMAX™ kinase assay panel. At this time, as a drug to treat the enzyme, a solution prepared by dissolving in DMSO at a concentration of 1 μM was used, and the control percentage (% control) was determined by the method of Equation 1 below, and the results were shown in Table 2 below.
In Equation above, the positive control and negative control mean compounds showing control percentages of 0% and 100% as DMSO, respectively.

The term IC50 denotes the concentration that gives 50% inhibition. Low readings indicate greater potency, high ones weaker potency. In general, GI50 refers to the concentration that inhibits growth by half.

T1 sequence (P11802 whole entry): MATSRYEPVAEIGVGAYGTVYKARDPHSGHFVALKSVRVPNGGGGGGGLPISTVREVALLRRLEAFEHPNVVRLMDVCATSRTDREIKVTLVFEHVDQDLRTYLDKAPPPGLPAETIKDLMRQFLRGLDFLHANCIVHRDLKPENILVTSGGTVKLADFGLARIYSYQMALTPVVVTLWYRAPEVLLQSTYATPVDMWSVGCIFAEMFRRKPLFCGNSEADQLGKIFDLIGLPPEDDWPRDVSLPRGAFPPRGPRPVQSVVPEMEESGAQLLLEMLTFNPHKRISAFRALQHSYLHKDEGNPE
T1 sequence (P24385 whole entry partner): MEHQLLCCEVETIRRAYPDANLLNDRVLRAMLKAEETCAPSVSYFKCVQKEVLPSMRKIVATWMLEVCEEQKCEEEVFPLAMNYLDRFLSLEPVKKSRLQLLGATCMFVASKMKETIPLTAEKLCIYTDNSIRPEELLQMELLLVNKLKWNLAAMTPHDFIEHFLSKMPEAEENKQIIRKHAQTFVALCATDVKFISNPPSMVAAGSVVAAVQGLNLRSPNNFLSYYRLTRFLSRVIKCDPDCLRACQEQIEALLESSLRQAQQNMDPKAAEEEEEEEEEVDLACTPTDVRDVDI
T2 sequence (Q00534 whole entry): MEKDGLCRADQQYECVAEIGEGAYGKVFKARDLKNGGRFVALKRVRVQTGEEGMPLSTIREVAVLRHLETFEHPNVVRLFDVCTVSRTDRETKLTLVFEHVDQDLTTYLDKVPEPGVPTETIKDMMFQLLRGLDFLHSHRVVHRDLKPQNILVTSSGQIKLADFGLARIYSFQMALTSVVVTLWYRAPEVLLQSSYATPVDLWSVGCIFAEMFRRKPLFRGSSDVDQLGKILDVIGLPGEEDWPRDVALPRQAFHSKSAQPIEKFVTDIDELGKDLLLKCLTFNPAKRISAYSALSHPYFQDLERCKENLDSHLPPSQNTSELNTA
T2 sequence (P24385 whole entry partner): as the sequence (P24385 whole entry partner) above

Consider `CN1CCN(c2ccc(Nc3nc(N4OCC[C@H]4c4ccccc4)c4cc[nH]c4n3)cc2)CC1` [Example 74, (S)-N-(4-(4-methylpiperazin-1-yl)phenyl)-4-(3-phenylisoxazolidin-2-yl)-7H-pyrrolo[2,3-d]pyrimidin-2-amine], for which the IC50 against CDK4-cyclinD1 [1], against CDK6 cyclin D1 and at human GST-HPK1 (1-346) was at least 250 nM throughout. Further, the GI50 with MV4-11 cells is at least 250 nM; with MCF-7 cells it was over 500 nM. The remaining binding at 1 µM on CDK4-cyclinD1 [2] is 0.55%.

The record behind these values is patent US20220242870A1, “HETEROCYCLE-FUSED PYRIMIDINE DERIVATIVE AND USE THEREOF” (VORONOI Inc., priority 2019, published 2022).
